Measurements taken from publication PMC4455115, “A new arylbenzofuran derivative functions as an anti-tumour agent by inducing DNA damage and inhibiting PARP activity” (Scientific Reports, 2015).

Target: T1, PARP-1 (Homo sapiens, UniProt P09874)
T1 construct: gene PARP1
Assay: HT Universal Colorimetric PARP Assay Kit (Trevigen), in vitro PARP-1 activity
Format: biochemical

T1 sequence (P09874 2-1014): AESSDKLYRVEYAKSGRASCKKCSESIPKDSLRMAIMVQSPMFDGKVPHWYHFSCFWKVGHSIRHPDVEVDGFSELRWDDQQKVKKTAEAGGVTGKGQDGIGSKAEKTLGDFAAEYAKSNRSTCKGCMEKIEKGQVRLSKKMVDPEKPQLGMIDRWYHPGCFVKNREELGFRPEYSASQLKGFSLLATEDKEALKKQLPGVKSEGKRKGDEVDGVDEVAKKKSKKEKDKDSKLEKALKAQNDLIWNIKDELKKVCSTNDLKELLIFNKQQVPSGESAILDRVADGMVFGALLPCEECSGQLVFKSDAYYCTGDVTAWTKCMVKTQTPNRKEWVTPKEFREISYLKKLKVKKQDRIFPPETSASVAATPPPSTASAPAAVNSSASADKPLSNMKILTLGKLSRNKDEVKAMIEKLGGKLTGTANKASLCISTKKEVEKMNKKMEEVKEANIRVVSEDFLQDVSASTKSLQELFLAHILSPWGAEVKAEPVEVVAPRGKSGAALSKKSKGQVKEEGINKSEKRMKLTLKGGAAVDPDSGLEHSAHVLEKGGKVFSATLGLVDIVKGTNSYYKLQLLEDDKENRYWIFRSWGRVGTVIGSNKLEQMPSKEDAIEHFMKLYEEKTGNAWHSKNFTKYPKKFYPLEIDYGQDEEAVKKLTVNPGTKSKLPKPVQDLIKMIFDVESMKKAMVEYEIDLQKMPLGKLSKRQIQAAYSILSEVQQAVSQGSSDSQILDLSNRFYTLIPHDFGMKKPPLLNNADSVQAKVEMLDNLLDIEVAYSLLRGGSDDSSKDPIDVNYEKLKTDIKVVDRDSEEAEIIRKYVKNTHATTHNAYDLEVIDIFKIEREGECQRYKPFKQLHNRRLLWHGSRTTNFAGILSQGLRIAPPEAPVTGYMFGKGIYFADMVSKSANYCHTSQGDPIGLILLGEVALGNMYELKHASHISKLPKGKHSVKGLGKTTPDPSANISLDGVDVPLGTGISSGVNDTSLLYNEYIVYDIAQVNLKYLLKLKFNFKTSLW

IC50: 154 µM
SMILES: COc1ccc(-c2cc3cc(OC)cc(O)c3o2)cc1 [HDAB]
